# Data taken from article PMC8953563, “A Study on the Effect of the Substituent against PAK4 Inhibition Using In Silico Methods” (International Journal of Molecular Sciences, 2022).
# Like-named read-outs stand apart in the source and are kept apart here.
# Target: PAK4 (Homo sapiens, UniProt O96013)
# Experiment: radiometric [γ-33P]-ATP kinase assay (Eurofins KinaseProfiler), myelin basic protein substrate
# Type: biochemical
# Sequence of PAK4 (O96013 whole entry): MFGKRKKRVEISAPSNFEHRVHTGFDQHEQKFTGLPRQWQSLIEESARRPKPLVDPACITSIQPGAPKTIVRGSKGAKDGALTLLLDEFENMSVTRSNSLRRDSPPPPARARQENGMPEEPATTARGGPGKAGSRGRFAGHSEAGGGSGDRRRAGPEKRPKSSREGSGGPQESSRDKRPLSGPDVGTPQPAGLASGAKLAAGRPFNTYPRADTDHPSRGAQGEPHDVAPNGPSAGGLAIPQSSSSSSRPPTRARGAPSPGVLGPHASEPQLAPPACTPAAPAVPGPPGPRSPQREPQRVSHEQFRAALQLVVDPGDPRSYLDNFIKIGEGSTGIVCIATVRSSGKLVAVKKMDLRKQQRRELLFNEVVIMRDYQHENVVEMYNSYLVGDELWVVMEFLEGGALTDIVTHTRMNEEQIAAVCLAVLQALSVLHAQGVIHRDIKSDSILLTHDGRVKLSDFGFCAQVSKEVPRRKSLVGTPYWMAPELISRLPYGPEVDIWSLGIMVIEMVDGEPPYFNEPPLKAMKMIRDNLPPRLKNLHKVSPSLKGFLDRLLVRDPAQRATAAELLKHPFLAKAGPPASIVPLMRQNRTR
IC50 (read-out: 1),IC50 (read-out: 2),Structure (SMILES)
5.15 µM,,"CC(C)c1nn(C)cc1-c1nc2cc(Br)cnc2[nH]1 [compound 1, 6-bromo-2-(3-isopropyl-1-methyl-1H-pyrazol-4-yl)-3H-imidazo[4,5-b]pyridine]"
,8.53 µM,"CC(C)c1nn(C)cc1-c1nc2cc(Cl)cnc2[nH]1 [compound 2, 6-chloro-2-(3-isopropyl-1-methyl-1H-pyrazol-4-yl)-3H-imidazo[4,5-b]pyridine]"
